Holding throughout (type): cell-based, human
Conditions in all cases: 50 μM, 24 h

For one test, the system named is MCF-7 cells. The experiment in a line: MTT antiproliferation assay, MCF-7 cells. How it is done: (§1) Cell Lines and Culture. MCF-7, T-47D, and H184B5F5/M10 cells were cultured with 5% CO2 atmosphere at 37° C.; MDA-MB-231 cells were cultured without CO2 at 37° C. The MCF-7 cells were cultured in MEM containing 10% heat-inactivated FBS, 100 units/mL penicillin, 100 μg/mL streptomycin, and 1 mM sodium pyruvate. The T-47D cells were maintained in RPMI-1640 medium containing 10% heat inactivated FBS, 100 units/mL penicillin, and 100 μg/mL streptomycin. […]
(§2) Assay for Antiproliferation. To determine the antiproliferative effect, MCF-7, T-47D, MDA-MB-231, or H184B5F5/M10 cells were assessed using the MTT assay as previously reported (Ho, C. Y.; Kim, C, F.; Leung, K. N.; Fung, K. P.; Tse, T. F.; Chan, H.; Lau, C. B. Differential anti-tumor activity of Coriolus versicolor (Yunzhi) extract through p53- and/or Bcl-2-dependent apoptotic pathway in human breast cancer cells. Cancer Biol. Ther. 2005, 4, e11-e17). […] The absorbance at 570 nm was measured, and the viability of cells was calculated using the following equation: relative cell number (%)=(average absorbance of treated wells)×100/(average absorbance of blank vehicle wells).

The subject of another test is MDA-MB-231 cells. The experiment in a line: MTT antiproliferation assay, MDA-MB-231 cells. How it is done: as §1, §2
Background: Tetrazolium dyes change colour on reduction, which living cells bring about.

Another test relates to T-47D cells. Put plainly: MTT antiproliferation assay, T-47D cells. How it is done:
as §1, §2

For coixspirolactam D [compound 1], the percentage of inhibition turned out to be 30.2% with MCF-7 cells and 47.4% in the test with MDA-MB-231 cells.

As to coixspirolactam E [compound 2], the percentage of inhibition in the test with MDA-MB-231 cells stood at 25.3%; in the test on T-47D cells it was 20.7%.
